In ChEMBL document CHEMBL5380816, “Inclusion of Nitrofurantoin into the Realm of Cancer Chemotherapy via Biology-Oriented Synthesis and Drug Repurposing” (J Med Chem, 2023) one finds Activity, viability and IC50 data, which are given here for four molecules.

The test system of assay [1] is Caco-2. The assay is described as follows: Anticancer activity against human Caco-2 cells assessed as cell shrinkage incubated at 0.098uM for 72 hrs by phase contrast inverted microscopic analysis. The assay is classed as functional, cell-based.
Assay [2] concerns Caco-2. The assay is described as follows: Anticancer activity against human Caco-2 cells assessed as absence of normal spindle shape incubated at 0.098uM for 72 hrs by phase contrast inverted microscopic analysis. The assay is classed as functional, cell-based.
Assay [3] relates to MCF7. The assay is described as follows: Anticancer activity against human MCF7 cells assessed as round cells incubated at 0.098uM for 72 hrs by phase contrast inverted microscopic analysis. The assay is classed as functional, cell-based.
In assay [4] the test system is HepG2. The assay can be described thus: Anticancer activity against human HepG2 cells assessed as round cells incubated at 0.098uM for 72 hrs by phase contrast inverted microscopic analysis. The assay is classed as functional, cell-based.
Assay [5] concerns Caco-2. The assay can be described thus: Induction of apoptosis in human Caco-2 cells assessed as late apoptotic cells incubated at 0.098 uM for 72 hrs by annexin V-FITC based propidium iodide dual staining assay (reference value: 0.02%). The assay is classed as functional.
Assay [6] concerns HepG2. The assay is described as follows: Induction of apoptosis in human HepG2 cells assessed as viable cells incubated at 0.098 uM for 72 hrs by annexin V-FITC based propidium iodide dual staining assay (reference value: 97.27%). The assay is classed as functional. The note with it: read-out: Activity.
For assay [7], the system named is HepG2. The assay can be described thus: Induction of apoptosis in human HepG2 cells assessed as total apoptotic cells incubated at 0.098 uM for 72 hrs by annexin V-FITC based propidium iodide dual staining assay (reference value: 0.99 +/- 0.02%). The assay is classed as functional.
Assay [8] concerns MCF7. The assay can be described thus: Induction of apoptosis in human MCF7 cells assessed as early apoptotic cells by measuring bright green patch incubated at 0.098 uM for 72 hrs by acridine orange-ethidium bromide dual staining based fluorescence microscopic analysis. The assay is classed as functional, cell-based.
Assay [9] relates to Caco-2. The assay is described as follows: Induction of apoptosis in human Caco-2 cells assessed as late apoptotic cells by measuring orange to red patch incubated at 0.098 uM for 72 hrs by acridine orange-ethidium bromide dual staining based fluorescence microscopic analysis. The assay is classed as functional, cell-based.
Assay [10] deals with HepG2. The assay is described as follows: Induction of apoptosis in human HepG2 cells assessed as late apoptotic cells by measuring orange to red patch incubated at 0.098 uM for 72 hrs by acridine orange-ethidium bromide dual staining based fluorescence microscopic analysis. The assay is classed as functional, cell-based.
Assay [11] deals with HepG2. The assay is described as follows: Induction of oxidative stress in human HepG2 cells assessed as cell death by measuring redox alteration fluorescence incubated at 0.097 uM for 72 hrs in presence of dihydro dichlorofluorescein diacetate by DCFH-DA based flow cytometric analysis relative to control. The assay is classed as functional. A general note: A flow cytometer gives signals particle by particle.

The test system of assay [12] is MCF7. The assay can be described thus: Induction of oxidative stress in human MCF7 cells assessed as cell death by measuring redox alteration fluorescence incubated at 0.017 uM for 72 hrs in presence of dihydro dichlorofluorescein diacetate by DCFH-DA based flow cytometric analysis relative to control. The assay is classed as functional.
The test system of assay [13] is MCF7. The assay is described as follows: Anticancer activity against human MCF7 cells assessed as round cells incubated at 0.11 uM for 72 hrs by phase contrast inverted microscopic analysis. The assay is classed as functional, cell-based.
The test system of assay [14] is MCF7. The assay can be described thus: Anticancer activity against human MCF7 cells assessed as cell shrinkage incubated at 0.11 uM for 72 hrs by phase contrast inverted microscopic analysis. The assay is classed as functional, cell-based.
Assay [15] has as its system Caco-2. The assay can be described thus: Induction of apoptosis in human Caco-2 cells assessed as late apoptotic cells incubated at 0.11 uM for 72 hrs by annexin V-FITC based propidium iodide dual staining assay (reference value: 0.02%). The assay is classed as functional.
The subject of assay [16] is HepG2. The assay can be described thus: Induction of apoptosis in human HepG2 cells assessed as early apoptotic cells incubated at 0.11 uM for 72 hrs by annexin V-FITC based propidium iodide dual staining assay (reference value: 1.74%). The assay is classed as functional.
For assay [17], the system named is HepG2. The assay is described as follows: Induction of apoptosis in human HepG2 cells assessed as late apoptotic cells incubated at 0.11 uM for 72 hrs by annexin V-FITC based propidium iodide dual staining assay (reference value: 0.66%). The assay is classed as functional.
The test system of assay [18] is HeLa. The assay is described as follows: Induction of apoptosis in human HeLa cells assessed as total apoptotic cells incubated at 0.11 uM for 72 hrs by annexin V-FITC based propidium iodide dual staining assay (reference value: 0 +/- 0.035%). The assay is classed as functional.
The subject of assay [19] is HepG2. The assay is described as follows: Induction of apoptosis in human HepG2 cells assessed as total apoptotic cells incubated at 0.11 uM for 72 hrs by annexin V-FITC based propidium iodide dual staining assay (reference value: 0.99 +/- 0.02%). The assay is classed as functional.
Assay [20] concerns HeLa. The assay can be described thus: Induction of apoptosis in human HeLa cells assessed as early apoptotic cells by measuring bright green patch incubated at 0.11 uM for 72 hrs by acridine orange-ethidium bromide dual staining based fluorescence microscopic analysis. The assay is classed as functional, cell-based.
Assay [21] concerns MCF7. The assay can be described thus: Induction of apoptosis in human MCF7 cells assessed as late apoptotic cells by measuring orange to red patch incubated at 0.11 uM for 72 hrs by acridine orange-ethidium bromide dual staining based fluorescence microscopic analysis. The assay is classed as functional, cell-based.
Assay [22] deals with HepG2. The assay is described as follows: Anticancer activity against human HepG2 cells incubated for 24 hrs by MTT assay. The assay is classed as functional, cell-based. The settings on record: HepG2, 24 h.
Assay [23] concerns HepG2. The assay can be described thus: Induction of apoptosis in human HepG2 cells assessed as caspase3/7 activation at 0.11 uM using caspase-glo 3/7 as substrate relative to control. The assay is classed as functional.
The subject of assay [24] is HeLa. The assay can be described thus: Induction of apoptosis in human HeLa cells assessed as viable cells incubated at 0.017 uM for 72 hrs by annexin V-FITC based propidium iodide dual staining assay (reference value: 97.23%). The assay is classed as functional. The note with it: read-out: Activity.
Assay [25] relates to HeLa. The assay is described as follows: Induction of apoptosis in human HeLa cells assessed as early apoptotic cells incubated at 0.017 uM for 72 hrs by annexin V-FITC based propidium iodide dual staining assay (reference value: 2.77%). The assay is classed as functional.
For assay [26], the system named is MCF7. The assay can be described thus: Induction of apoptosis in human MCF7 cells assessed as viable cells by measuring green uniform patch incubated at 0.017 uM for 72 hrs by acridine orange-ethidium bromide dual staining based fluorescence microscopic analysis. The assay is classed as functional, cell-based.
Assay [27] concerns Caco-2. The assay is described as follows: Induction of apoptosis in human Caco-2 cells assessed as caspase3/7 activation at 0.017 uM using caspase-glo 3/7 as substrate relative to control. The assay is classed as functional.
The test system of assay [28] is Caco-2. The assay is described as follows: Anticancer activity against human Caco-2 cells assessed as round cells incubated at 0.097uM for 72 hrs by phase contrast inverted microscopic analysis. The assay is classed as functional, cell-based.
For assay [29], the system named is Caco-2. The assay can be described thus: Anticancer activity against human Caco-2 cells assessed as cell shrinkage incubated at 0.097uM for 72 hrs by phase contrast inverted microscopic analysis. The assay is classed as functional, cell-based.
Assay [30] concerns MCF7. The assay can be described thus: Anticancer activity against human MCF7 cells assessed as losing contact with neighbouring cells incubated at 0.097uM for 72 hrs by phase contrast inverted microscopic analysis. The assay is classed as functional, cell-based.
Assay [31] deals with HeLa. The assay is described as follows: Anticancer activity against human HeLa cells assessed as round cells incubated at 0.097uM for 72 hrs by phase contrast inverted microscopic analysis. The assay is classed as functional, cell-based.
Assay [32] relates to HeLa. The assay can be described thus: Anticancer activity against human HeLa cells assessed as absence of normal spindle shape incubated at 0.097uM for 72 hrs by phase contrast inverted microscopic analysis. The assay is classed as functional, cell-based.
Assay [33] concerns HepG2. The assay is described as follows: Anticancer activity against human HepG2 cells assessed as absence of normal spindle shape incubated at 0.097uM for 72 hrs by phase contrast inverted microscopic analysis. The assay is classed as functional, cell-based.
Assay [34] concerns Caco-2. The assay is described as follows: Induction of apoptosis in human Caco-2 cells assessed as early apoptotic cells incubated at 0.097 uM for 72 hrs by annexin V-FITC based propidium iodide dual staining assay (reference value: 0.07%). The assay is classed as functional.
In assay [35] the test system is Caco-2. The assay is described as follows: Induction of apoptosis in human Caco-2 cells assessed as late apoptotic cells incubated at 0.097 uM for 72 hrs by annexin V-FITC based propidium iodide dual staining assay (reference value: 0.02%). The assay is classed as functional.
The subject of assay [36] is MCF7. The assay is described as follows: Induction of apoptosis in human MCF7 cells assessed as early apoptotic cells incubated at 0.097 uM for 72 hrs by annexin V-FITC based propidium iodide dual staining assay (reference value: 0.06%). The assay is classed as functional.

Calls of active or inactive are those of the source. The rule behind the calls is not given here.

For the molecule `O=C(CN1C(=O)CN(/N=C/c2ccc([N+](=O)[O-])o2)C1=O)c1ccc(Cl)cc1`, the result in the assay on Caco-2 [1], in the assay with Caco-2 [2], in the assay on MCF7 [3], in the assay on HepG2 [4], in the assay on MCF7 [8] and with Caco-2 [9] was Active. Moreover, the outcome in the assay on HepG2 [10] was Active. The Activity with Caco-2 [5] was 27.58%; in the assay on HepG2 [7], 38.74%; in the assay on HepG2 [11], 38.99%; in the assay on MCF7 [12] it was 34.7%. Moreover, in the assay on HepG2 [6], the viability at 0.098 µM was found to be 55%.

Turning to `C#CCN1C(=O)CN(/N=C/c2ccc([N+](=O)[O-])o2)C1=O`, the result in the assay with MCF7 [13], with MCF7 [14], in the assay with HeLa [20] and in the assay with MCF7 [21] was Active. Moreover, the Activity in the assay on Caco-2 [15] is given as 42.24%; in the assay on HepG2 [16], 4.8%; with HepG2 [17], 59.49%; in the assay with HeLa [18], 25.17%; in the assay with HepG2 [19], 63.15%; in the assay on HepG2 [23], 63%. This molecule also displayed an IC50 in the assay on HepG2 [22] of 117 µM.

As to `O=c1[nH]cc(F)c(=O)[nH]1` [FLUOROURACIL], in the assay on HeLa [24], the viability at 0.017 µM came to 88.1%. For the same molecule, the results for the Activity with HeLa [25] and in the assay on Caco-2 [27] were 7.6% and 12%, respectively. Moreover, the result with MCF7 [26] was Active.

On to `NS(=O)(=O)c1ccc(-n2cc(CN3C(=O)CN(/N=C/c4ccc([N+](=O)[O-])o4)C3=O)nn2)cc1`, for which the result in the assay on Caco-2 [28], with Caco-2 [29], in the assay on MCF7 [30], in the assay with HeLa [31], with HeLa [32] and in the assay on HepG2 [33] was Active. For the same molecule, the Activity with Caco-2 [34] amounted to 30.95%; in the assay with Caco-2 [35], 22.46%; with MCF7 [36], 4.85%.

The IC50 is the midpoint of a concentration-inhibition curve.
